Results as given in patent US12350276B2, “Methods for the treatment of cancer using 1-(4-{[4-(dimethylamino)piperidin-1-yl]carbonyl}phenyl)-3-[4-(4,6-dimorpholin-4-yl-1,3,5-triazin-2-yl)phenyl]urea” (Celcuity Inc., priority 2021, dated 2025).

Legend:
Rb-negative tumors = conditions: reported by Michaud et al., Cancer Res. 70:3228-3238 (2010); cited from earlier work
[1] = Stability of crystalline form on storage; assay type: physicochemical; conditions: 25° C. and 60% Relative Humidity (RH)
Source text: (§1) Gedatolisib is a pan-class I isoform PI3K/mTOR inhibitor with high potency (NCT02626507, Apr. 24, 2020). The chemical synthesis of gedatolisib is disclosed in U.S. Pat. Nos. 8,039,469; 8,217,036; 8,445,486; 8,575,159; 8,748,421; 8,859,542; 9,174,963; 10,022,381, which are hereby incorporated by reference in their entirety. […] Accordingly, formulations that allow for therapeutic dosage levels have been developed.

[2] = tested on: MCF7 xenograft model (ER+/HER2−/PIK3CA mutant); conditions: cited from earlier work
[3] = Phase 1b trial, dose escalation portion: maximum tolerated dose; assay type: in vivo, human; conditions: IV, in triplet combination with palbociclib and letrozole or fulvestrant
Source text: The primary objective of the study was to assess the safety, tolerability, and maximum tolerated dose (MTD) of the triplet combination of gedatolisib added to either the standard dose of the palbociclib/letrozole or palbociclib/fulvestrant.
(§2) This is a Phase 1b, multicenter, open-label, study in patients with mBC. This study has both a dose escalation and expansion portion. The dose escalation portion will identify the MTD of the combination of gedatolisib plus palbociclib/letrozole and gedatolisib plus palbociclib/fulvestrant. The expansion portion will estimate the objective response rate of the combination of gedatolisib plus palbociclib/letrozole and the combination of gedatolisib plus palbociclib/fulvestrant.
The dose escalation portion of the study initially assess safety and tolerability of the 180 mg/week dose of gedatolisib plus standard doses of palbociclib/letrozole or 180 mg/week dose of gedatolisib plus standard doses of palbociclib/fulvestrant. The dose escalation portion then explore escalating doses of gedatolisib plus each regimen. During the dose escalation 10 DLT evaluable patients are treated at the expected MTD.
The conventional approach to determining the dosing schedule for a therapeutic regimen for cancer patients is to determine the maximum tolerated dose in a Phase 1 clinical trial. […]

[4] = tested on: patients with ER+/HER2− metastatic breast cancer; test: Phase 1b trial, expansion portion: gedatolisib plus palbociclib plus fulvestrant or letrozole; assay type: in vivo, human; conditions: for Overall Response Rate: partial objective response; for # of Partial Responses: patients who failed 2 or more prior lines of therapy; for median duration of treatment, Arm D relative to Arm C: 3 weeks on/1 week off vs weekly
Source text: To evaluate this hypothesis, Pfizer initiated a Phase 1b trial dose-finding trial with a four-armed expansion portion for safety and efficacy to evaluate gedatolisib when added to either the standard doses of palbociclib plus letrozole or palbociclib plus fulvestrant in patients with ER+/HER2− metastatic breast cancer. PI3K mutation status was not used as an eligibility criterion. Patient enrollment for the trial is complete. A preliminary analysis for the 103 patients enrolled in the expansion portion of the Phase 1b clinical trial, as of the database cutoff date of Jan. […] 1. Objectives
as §2
The study population for the dose escalation and the dose expansion consists of patients of any menopausal status with ER-positive, HER2-negative, metastatic or locally-recurrent/advanced breast cancer (mBC).
Once the MTD of each combination was determined this triggers the initiation of the expansion portion, which comprises 4 arms, as follows: (1) Arm A: first-line endocrine-based therapy; (2) Arm B: second- or third-line endocrine-based therapy, without prior palbociclib (or other CDK inhibitor) therapy; (3) Arm C: second- or third-line endocrine-based therapy with prior exposure to palbociclib (or other CDK inhibitor) therapy, in which gedatolisib is administered once weekly for four weeks; and (4) Arm D: second or third line endocrine based therapy with progression on palbociclib (or other CDK inhibitor) therapy (as the most recent regimen), in which gedatolisib is administered on a three weeks on/one week off (3:1) schedule.
All cycles are 28 days in length. Gedatolisib is administered IV weekly on Days 1, 8, 15 and 22 of each cycle (except for Arm D, in which gedatolisib is administered on Days 1, 8 and 15 of each cycle), palbociclib is administered at 125 mg/day orally continuously dosed for 3 weeks followed by 1 week off, repeated at each subsequent cycle. Letrozole 2.5 mg daily is administered orally on a continuous basis (daily) and fulvestrant is administered at a dose of 500 mg intramuscularly on Cycle 1 Day 1, Cycle 1 Day 15, Cycle 2 Day 1, and then on […] of each subsequent cycle (±3 days).
Gedatolisib was administered weekly as an IV infusion over approximately 30 minutes. (Dose Escalation; Dose Expansion: Arm A, Arm B and Arm C).
In Arm D of the Dose Expansion portion, gedatolisib was administered on a 3 week on/one week off schedule as an IV infusion over approximately 30 minutes. No premedication was required.
The coprimary efficacy endpoints of the study were (1) first cycle Dose-Limiting Toxicities (DLTs); and (2) Objective response (OR) as assessed by the Investigator.
The secondary efficacy endpoints of the study were: • 1) Safety including adverse events as characterized by type, frequency, severity, timing, seriousness and relationship to study therapy and laboratory abnormalities as characterized by type, frequency, severity and timing. • 2) Tumor response for the dose escalation portion of the study. • 3) DR and PFS (as assessed using the RECIST v 1.1) for the expansion portion of the study. • 4) QTc interval. • 5) Single and multiple dose PK parameters of gedatolisib and palbociclib. Multiple dose PK parameters of fulvestrant and letrozole (Dose Escalation portion only). • 6) Single and multiple dose PK parameters of gedatolisib (Dose Expansion portion only). 7. Results
Arm D patients received gedatolisib (180 mg IV three weeks on/one week off). […]

[5] = aqueous formulation with methanesulphonic acid or ethanesulphonic acid; WO2019038657; cited from earlier work
[6] = Aqueous solubility / achievable solution concentration; assay type: physicochemical; conditions: free base; for aqueous IV or parenteral solution at therapeutic dosage levels
Source text: as §1, with “developed. The formulations include gedatolisib, or a methanesulphonate salt thereof, methanesulphonic acid, and water. […] Another formulation disclosed is gedatolisib, or an ethanesulphonate salt thereof, ethanesulphonic acid and water.” for “developed.”

[7] = Arm C, weekly, failed 2 or more prior lines of therapy
[8] = Arm D vs Arm C, failed 2 or more prior lines of therapy
[9] = Arm D, 3 weeks on/1 week off, DIPT < 180 days
[10] = Arm D, 3 weeks on/1 week off, DIPT < 365 days
[11] = Arm D, 3 weeks on/1 week off, failed 2 or more prior lines of therapy

For `CC(=O)c1c(C)c2cnc(Nc3ccc(N4CCNCC4)cn3)nc2n(C2CCCC2)c1=O` [PD-0332991, 6-acetyl-8-cyclopentyl-5-methyl-2-(5-piperazin-1-yl-pyridin-2-ylammino)-8H-pyrido-[2,3-d]-pyrimidin-7-one], which “activity against Rb-negative tumors” value (Rb-negative tumors) is on record?
Its value is “inactive”.

Which “chemically and physically stable for” value [1] does the source give for `CN(C)C1CCN(C(=O)c2ccc(NC(=O)Nc3ccc(-c4nc(N5CCOCC5)nc(N5CCOCC5)n4)cc3)cc2)CC1` [gedatolisib, 1-(4-{[4-(Dimethylamino)piperidin-1-yl]carbonyl}phenyl)-3-[4-(4,6-dimorpholin-4-yl-1,3,5-triazin-2-yl)phenyl]urea] here?
Its value is “up to 3 years”.

What about the “time tumors remained dormant without further therapy” value ([2]; after triplet therapy (gedatolisib, palbociclib, fulvestrant)) of the same compound?
The value was “up to 90 days”.

And the tumor response ([2]; combination of gedatolisib with palbociclib and fulvestrant, Pfizer internal preclinical study)?
The tumor response was “durable tumor regressions”.

What about the “time for tumors to regress to minimal volumes” value ([2]; triplet therapy (gedatolisib, palbociclib, fulvestrant)) of the same compound?
Its value is ≤ 20 days.

And the maximum tolerated dose [3]?
Its maximum tolerated dose is 180 mg weekly.

And the “Median Duration of Gedatolisib (DGT) Treatment” value (from here on “Median Duration of Gedatolisib”) ([4]; Arm C, weekly gedatolisib with palbociclib and fulvestrant, DIPT < 180 days)?
The value was 81 days.

What about the “Median Duration of Gedatolisib” value ([4]; Arm C, weekly gedatolisib with palbociclib and fulvestrant, DIPT < 365 days) of the same compound?
Its value is 131 days.

What about the “Ratio of median DIPT vs. DGT” value ([4]; Arm C, weekly, DIPT < 180 days) of the same compound?
The value was 0.8.

What about the “Overall Response Rate” value ([4]; Arm C, weekly, DIPT < 180 days) of the same compound?
The value was 0%.

And the “Overall Response Rate” value ([4]; Arm C, weekly, DIPT < 180 days, listed as Gedatolisib)?
The value was 0%.

What about the “Ratio of median DIPT vs. DGT” value ([4]; Arm C, weekly, DIPT < 365 days) of the same compound?
The value was 0.9.

What about the “Overall Response Rate” value ([4]; Arm C, weekly, DIPT < 365 days) of the same compound?
The value was 15%.

What about the “Overall Response Rate” value ([4]; Arm C, weekly, DIPT < 365 days, listed as Gedatolisib) of the same compound?
The value was 15%.

And the “Mean Progression Free Survival” value [4, 7]?
The value was 233.

And the “Objective Response Rate” value [4, 7]?
The value was 32%.

And the “# of Partial Responses” value ([4]; Arm C, weekly, 19 evaluable)?
Its value is 6.

What about the “Mean Progression Free Survival, Odds Ratio” value [4, 8] of the same compound?
Its value is 2.28.

What about the “Objective Response Rate, Odds Ratio” value [4, 8] of the same compound?
Its value is 2.4.

What about the “Objective Response Rate, Odds Ratio” value ([4]; Arm D vs Arm C, failed 2 or more prior lines of therapy, listed as Gedatolisib) of the same compound?
Its value is 2.44.

What about the “Ratio of median DIPT vs. DGT” value [4, 9] of the same compound?
The value was 2.6.

What about the “Overall Response Rate” value [4, 9] of the same compound?
The value was 71%.

And the “Overall Response Rate” value ([4]; Arm D, 3 weeks on/1 week off, DIPT < 180 days, listed as Gedatolisib)?
Its value is 71%.

And the “Ratio of median DIPT vs. DGT” value [4, 10]?
Its value is 1.8.

What about the “Overall Response Rate” value [4, 10] of the same compound?
The value was 73%.

What about the “Overall Response Rate” value ([4]; Arm D, 3 weeks on/1 week off, DIPT < 365 days, listed as Gedatolisib) of the same compound?
The value was 73%.

What about the “Mean Progression Free Survival” value [4, 11] of the same compound?
The value was 531.

And the “Objective Response Rate” value [4, 11]?
The value was 78%.

And the “# of Partial Responses” value ([4]; Arm D, 3 weeks on/1 week off, 9 evaluable)?
Its value is 7.

And the “Median Duration of Gedatolisib” value ([4]; Arm D, gedatolisib 180 mg IV 3 weeks on/1 week off with palbociclib and fulvestrant, DIPT < 180 days)?
The value was 270 days.

And the “Median Duration of Gedatolisib” value ([4]; Arm D, gedatolisib 180 mg IV 3 weeks on/1 week off with palbociclib and fulvestrant, DIPT < 365 days)?
Its value is 276 days.

What about the “Median progression free survival” value ([4]; Arm D: prior endocrine therapy plus CDK4/6 inhibitor, gedatolisib 3 weeks on/1 week off with palbociclib and fulvestrant) of the same compound?
The value was 13.2 months.

What about the “clinical benefit rate (CBR)” value ([4]; expansion portion, all arms, 88 evaluable patients, confirmed PR or stable disease for 24 weeks, cutoff Jan. 11, 2021) of the same compound?
Its value is 75%.

And the “objective response rate (ORR)” value ([4]; expansion portion, all arms, 88 evaluable patients, confirmed or unconfirmed PR, with palbociclib plus letrozole or fulvestrant, cutoff Jan. 11, 2021, preliminary analysis)?
The value was 60%.

What about the “median duration of treatment, Arm D relative to Arm C” value ([4]; patients who progressed on immediate prior therapy in ≤6 months) of the same compound?
Its value is “more than 3 times”.

What about the “median duration of treatment, Arm D relative to Arm C” value ([4]; patients who progressed on immediate prior therapy in ≤12 months) of the same compound?
The value was “more than two times longer”.

And the “solution concentration achieved (clear, essentially particle-free solution)” value [5]?
The value was “up to 30 mg/ml”.

What about the water solubility [6] of the same compound?
Its water solubility is “insufficiently water soluble”.
